Results published in patent US12053465B2, “KCC2 expression enhancing compounds and uses thereof” (Whitehead Institute for Biomedical Research, priority 2017, dated 2024).

Key:
KCC2 expression [1] = assay: Western blot of KCC2 in cultured human RTT neurons; type: cell-based
Experimental: Protein samples were collected from cultured brain slices or cultured neurons in 12-well format with RIPA lysis buffer (in mM: 150 NaCl, 25 Tris-HCl, 1 EDTA, 1% NP-40, 1% sodium deoxycholate, 0.1% SDS, with protein kinase inhibitor and protease inhibitor, pH adjusted to 7.6). A sonication step was applied to homogenize tissue and extract protein, followed by a 10 minute centrifugation at 4° C. […] The PVDF membrane was blocked for 30 minutes with 5% milk in TBS+0.1% Tween 20 (TBST), and incubated overnight at 4° C. with primary antibodies diluted in TBST-milk at the following concentrations: KCC2 (1:2000, Millipore), NKCC1 (1:1000, Iowa Hybridoma bank), α-Tubulin (1:4000, Abcam), GAPDH (1:3000, Abcam), Actin (1:2000, Sigma Aldrich #A2066). The membrane was rinsed with TBST three times to wash off excess antibodies, and then incubated in secondary HRP antibodies in TBST-milk at 1:5000 concentration.
The PVDF membrane was then stripped using the Re-blot plus strong solution (Millipore), and re-immunoblotted for NKCC1 (˜150 kDa) to acquire KCC2/NKCC1 ratio. The area and intensity of protein signal was determined using ImageJ. The relative KCC2 and NKCC1 expression were calculated by normalizing protein signal to GAPDH or Tubulin loading control.

KCC2 expression [2] = assay: Western blot of KCC2 in cultured WT human neurons; type: cell-based; details: cultured WT human neurons (WIBR1); Western blot
KCC2 expression [3] = assay: Western blot of KCC2 in organotypic mouse brain slices; type: cell-based; details: organotypic neonatal mouse brain slices, treated 7 days, vs DMSO, MeBIO or medium-only control
KCC2 mRNA = assay: Quantitative RT-PCR of KCC2 mRNA in organotypic mouse brain slices; type: cell-based
Experimental: (§1) Brain slices were also treated with the FLT3 inhibitors Crenolanib and XL-184. […] To assess whether increased KCC2 protein levels were due to increased gene transcription or enhanced protein stability, quantitative RT-PCR experiments were performed to measure the KCC2 mRNA level in KEEC-treated brain slices. […] In contrast, the expression of NKCC1, a chloride transporter that antagonizes KCC2 activity by shuttling Cl^− into the cell (44), was decreased by treatment with KEEC compounds (FIG. 8F).
(§2) Brain slice cultures were prepared from P1 neonatal mouse according to a protocol described by Antonio del Rio et al., Nature Protocols, 2010. Cerebrum slices (1 mm in thickness) were prepared from neonatal mouse brain, and were transferred to 6-well culture inserts with the pore size of 0.4 μm. The insert was placed in 6-well plates with 1 ml of culture medium. Three days after the initial culture, compounds and DMSO control were added to the medium. Alternately, in some experiments, brain slice cultures were prepared from P3 neonatal mouse according to a protocol described by Antonio del Rio et al., Nature Protocols, 2010. Cerebrum slices (1 mm in thickness) were prepared from neonatal mouse brain, and were transferred to 6-well culture inserts with the pore size of 0.4 μm. The insert was placed in 6-well plates with 1 ml of culture medium. The day after the initial culture, compounds and DMSO control were added to the medium. The medium with fresh compounds was used to replace old medium every other day. One week after drug treatment, the brain slices were harvested for Western blot or qRT-PCR analysis.
(§3) To prepare RNA samples from cultured organotypic brain slice, tissue samples were homogenized by passing through a 23 gauge needle for a number of times. Total RNA was extracted with Omega Total RNA kit and was reverse-transcribed into cDNA using the Invitrogen Superscript RT system and Oligo dT primer. SYBR green-based quantitative RT-PCR assay was performed to detect for the abundance of specific mRNA transcripts. The primer sequence for the detection of KCC2 expression in mouse brain samples are as follows: KCC2-Forward: […] (SEQ ID NO: 2); KCC2-Reverse: […] (SEQ ID NO: 3). The primer sequence for detection of NKCC1 mRNA are as follows: NKCC1-Forward: […] (SEQ ID NO: 3); NKCC1-Reverse: […] (SEQ ID NO: 4). The gene expression was calculated by normalizing the KCC2 data with the expression of housekeeping gene HDAC2 in every sample. HDAC2 expression was detected using the following primers: HDAC2-Forward: […] (SEQ ID NO: 5); HDAC2-Reverse: […] (SEQ ID NO: 6). Relative gene expression levels were calculated by normalizing KCC2 or NKCC1 expression in drug-treated groups with that in DMSO controls with the housekeeping gene HDAC being used as internal control.

NKCC1 mRNA = assay: Quantitative RT-PCR of NKCC1 mRNA in organotypic mouse brain slices; type: cell-based
Experimental: as §1, §2, §3

[4] = tested on: KCC2 expression (KCC2-2A-luciferase reporter); assay: KCC2-2A-luciferase reporter compound screening with RTT KCC2 reporter neurons; type: cell-based, human; details: for B Score: MECP2-null RTT human KCC2 reporter neurons, LINCS, SMART, ICCB libraries, Luc/CTG normalized to in-plate DMSO, hit = B score >3
Experimental: The RTT KCC2-2A-luciferase reporter neurons were treated with the test compounds from the LINCS kinase inhibitor library and IRSF SMART compound library and incubated before being lysed. The cell lysate was divided into two parts to measure luciferase signal (KCC2 translation) and Cell-Titer Glow (CTG, amount of ATP). The luciferase signal was normalized to CTG for each well, and the Luc/CTG ratio was normalized to the in-plate DMSO negative control to calculate fold change ratio.
Additional screens for reporter activation in the MECP2-null RTT human KCC2 reporter neurons (isogenic to the WT reporter cells used above) were performed with the LINCS and SMART libraries as well as the ICCB known bioactive library and identified hits as compounds with B score >3.
The cells were dissociated with Accutase and resuspended in 10 ml neuronal differentiation medium to count cells. The cells were then diluted to the final density of 200,000 to 500,000 cells/ml. Matrigel was added to the cell suspension at a dilution ratio of 1:300 to promote cell adhesion after plating. AraC was added to cell suspension at the concentration of 2 μM to inhibit cell division. The cells were plated into 96-well plates with an automated cell seeding machine using the following protocol: The neuron flask was washed with PBS. The neurons were digested off the plate with Accutase for 30 minutes at 37° C. Next, the dissociated cells were collected and spun down at 750 rpm for 5 minutes. The cell pellet was dissociated by gentle trituration with P1000 pipet and the cells were resuspended with 10 ml of neuronal medium. Then, the cells were filtered through a 40 μm cell strainer (Falcon) to get rid of clumps. The resulting single-cell suspension was counted using a Countess automated cell counter (Invitrogen Countess Automated Cell Counter, Catalog no. C10227). The neurons were resuspended with neuronal medium to 10× of the destination density (100,000 cells to 400,000 cells per ml). The cells were plated with a multichannel pipette, or proceeded to the machine-plating protocol described below:
The day after cell seeding, small molecule compounds from the IRSF (International Rett Syndrome Foundation) library were prepared at a concentration of 1 mM and dispensed into a blank V-bottomed test plates at 2 μl per well. Compound solvent DMSO was included in every plate as control. Using a liquid handling robot, about 80 μl of culture medium were discarded. Neuronal medium in the volume of 200 μl was added to the V-bottom test plate that contained 2 μl of 1 mM compounds, and mixed with compounds by pipetting up-and-down 3 times. The medium that contained the 10 μM compounds was then applied to the neuronal cell culture and incubated for 2 weeks before cell lysis and luciferase assay were performed.
The cells were dissociated with Accutase, resuspended in 10 ml neuronal differentiation medium to count cells. the final cell seeding density was 20 k-40 k cells per well for 96-well plates, and ˜10 k cells per well for 384-well plates. Matrigel was added to the cell suspension at a dilution ratio of 1:300 to promote cell adhesion after plating. AraC were added to the cell suspension at the concentration of 0.5 μM to inhibit astroglial cell division. The cells were dispensed into 96-well or 384-well plates (Coming) using a BioTek EL406 plate dispenser. […] The neurons were incubated with the compounds at 37° C./5% CO2 for a week before the luciferase assay.
The cells used for luciferase assay were KCC2 reporter neurons differentiated for 4 weeks, and treated with drug in 96-well format for 2 weeks. Cell density was between 20 k-40 k cells per well.
On the day of the luciferase assay, the cells were washed with PBS for two times, and 100 μl of cell lysis buffer was applied to the washed cells. The cell plates were transferred to a rocker to shake for 10 minutes in order to fully lyse the cells.

REST = assay: Western blot of REST in cultured human RTT neurons; type: cell-based
Description: Two hit compounds Resveratrol and Piperine act on different pathways than the kinase inhibitors, activating the Sirtuin 1 (SIRT1) (49) and the transient receptor potential cation channel subfamily V member 1 (TRPV1) (50) signaling pathways, respectively.
Protein samples were collected from cultured brain slices or cultured neurons in 12-well format with RIPA lysis buffer (in mM: 150 NaCl, 25 Tris-HCl, 1 EDTA, 1% NP-40, 1% sodium deoxycholate, 0.1% SDS, with protein kinase inhibitor and protease inhibitor, pH adjusted to 7.6). A sonication step was applied to homogenize tissue and extract protein, followed by a 10 minute centrifugation at 4° C. The protein samples were mixed with NuPAGE LDS sample buffer, heated at 95° C. for 10 minutes, and then separated on NuPAGE 4-12% Bis-Tris gel and transferred to PVDF membrane. The PVDF membrane was blocked for 30 minutes with 5% milk in TBS+0.1% Tween 20 (TBST), and incubated overnight at 4° C. with primary antibodies diluted in TBST-milk at the following concentrations: KCC2 (1:2000, Millipore), NKCC1 (1:1000, Iowa Hybridoma bank), α-Tubulin (1:4000, Abcam), GAPDH (1:3000, Abcam), Actin (1:2000, Sigma Aldrich #A2066). The membrane was rinsed with TBST three times to wash off excess antibodies, and then incubated in secondary HRP antibodies in TBST-milk at 1:5000 concentration.

NRSF/REST = details: glioblastoma cell line; via SIRT1 pathway (49); cited from earlier work
immature mouse neurons = assay: Gramicidin-perforated patch recording of EGABA in DIV6-7 immature mouse neurons; type: cell-based
[5] = cultured human RTT neurons, Western blot
[6] = co-applied with EX-527 below the threshold for SIRT1 pathway inhibition
[7] = in the presence of a high concentration of SIRT1 pathway blocker EX-527, vs DMSO control

SMILES	KCC2 expression (KCC2 expression [1]; [5])	KCC2 expression (KCC2 expression [2])	KCC2 protein level (KCC2 expression [3])	KCC2 mRNA level (KCC2 mRNA)	NKCC1 mRNA level (NKCC1 mRNA)	B Score [4]	KCC2 reporter activity in RTT neurons ([4]; RTT KCC2-2A-luciferase reporter neurons vs in-plate DMSO)	KCC2 expression (KCC2 expression [1]; [6])	concentration at which treatment significantly increases KCC2 expression (KCC2 expression [1]; cultured ESC-derived human RTT neurons, Western blot) [µM]	KCC2 expression (KCC2 expression [1]; [7])	level of REST (REST; [6])	REST expression (REST; [7])	expression of NRSF/REST (NRSF/REST)	EGABA after treatment (immature mouse neurons; DIV6-7 immature mouse neurons, untreated about −50 mV)	significant hyperpolarizing shift in EGABA (immature mouse neurons; DIV6 cultured immature mouse neurons)
CC1(COc2ccc3c(c2)ncn3-c2ccc3cccc(N4CCC(N)CC4)c3n2)COC1 [Crenolanib, 1-(2-{5-[(3-Methyloxetan-3-yl)methoxy]-1H-benzimidazol-1-yl}quinolin-8-yl)piperidin-4-amine]	significant enhancement of KCC2 expression	significant enhancement of KCC2 expression	significantly increased the KCC2 protein level	significantly increased KCC2 expression	significant reduction in NKCC1 mRNA level	–	–	–	–	–	–	–	–	–	–
Oc1ccc(/C=C/c2cc(O)cc(O)c2)cc1 [Resveratrol, 3,5,4'-trihydroxy-trans-stilbene]	increase KCC2 expression	–	–	–	–	12.65	significant increase of KCC2 reporter activity	substantial increase in KCC2 expression	10	neither KCC2 nor REST was changed	reduction in the level of REST	neither KCC2 nor REST was changed	reduces expression of the neuronal gene repressor NRSF/REST	–	–
O=C1Nc2ccccc2/C1=C1/Nc2ccccc2/C1=N\O [Indirubin-monoxime, (2Z,3E)-3-(hydroxyimino)-[2,3′-biindolinylidene]-2′-one]	increased KCC2 expression levels significantly	–	–	significantly increased KCC2 expression	significant reduction in NKCC1 mRNA level	–	–	–	–	–	–	–	–	–	–
COc1cc2nccc(Oc3ccc(NC(=O)C4(C(=O)Nc5ccc(F)cc5)CC4)cc3)c2cc1OC [XL-184, N′-[4-[(6,7-dimethoxy-4-quinolinyl)oxy]phenyl]-N-(4-fluorophenyl)-1,1-cyclopropanedicarboxamide]	significant enhancement of KCC2 expression	significant enhancement of KCC2 expression	significantly increased the KCC2 protein level	significantly increased KCC2 expression	significant reduction in NKCC1 mRNA level	3.25	–	–	–	–	–	–	–	about −70 mV	induces significant hyperpolarizing shift in EGABA
CCN(CC)CCNC(=O)c1c(C)[nH]c(/C=C2\C(=O)Nc3ccc(F)cc32)c1C [Sunitinib, N-(2-diethylaminoethyl)-5-[(Z)-(5-fluoro-2-oxo-1H-indol-3-ylidene)methyl]-2,4-dimethyl-1H-pyrrole-3-carboxamide]	–	significant enhancement of KCC2 expression	–	significantly increased KCC2 expression	significant reduction in NKCC1 mRNA level	–	–	–	–	–	–	–	–	–	–
